Source: ChEMBL document CHEMBL1139124, “Oxazolidinones as novel human CCR8 antagonists” (Bioorg Med Chem Lett, 2007)
The source made the active and inactive calls. No cut-off for these calls is given here.

Key:
[1] = molecular target: C-C chemokine receptor type 8 (Homo sapiens, UniProt P51685); experiment: Antagonist activity at human recombinant CCR8 expressed in RBL cells assessed as inhibition of I-309-induced intracellular calcium mobilization by FLIPR assay; format: functional, cell-based
Homo sapiens = species: Homo sapiens; experiment: Selectivity for hERG over CCR8
[2] = molecular target: Voltage-gated inwardly rectifying potassium channel KCNH2 (Homo sapiens, UniProt Q12809); experiment: Inhibition of hERG; format: toxicity
Liver microsomes [3] = experiment: Intrinsic clearance in human liver microsome; format: ADME
Liver microsomes [4] = experiment: Intrinsic clearance in rat liver microsome; format: ADME
[5] = Volume of distribution at steady state in mouse at 1 mg/kg, iv or 2 mg/kg, po; format: ADME, organism-based; conditions: in vivo, read-out: Vdss
[6] = Oral bioavailability in mouse at 2 mg/kg; format: ADME, organism-based; conditions: in vivo
[7] = Clearance in mouse blood at 1 mg/kg, iv or 2 mg/kg, po; format: ADME, organism-based
[8] = Half life in mouse at 1 mg/kg, iv or 2 mg/kg, po; format: ADME, organism-based; conditions: in vivo
[9] = molecular target: T1, C-C chemokine receptor type 8 (Mus musculus) (UniProt P56484); experiment: Antagonist activity at mouse CCR8 by FLIPR assay; format: functional
T1 sequence (whole entry): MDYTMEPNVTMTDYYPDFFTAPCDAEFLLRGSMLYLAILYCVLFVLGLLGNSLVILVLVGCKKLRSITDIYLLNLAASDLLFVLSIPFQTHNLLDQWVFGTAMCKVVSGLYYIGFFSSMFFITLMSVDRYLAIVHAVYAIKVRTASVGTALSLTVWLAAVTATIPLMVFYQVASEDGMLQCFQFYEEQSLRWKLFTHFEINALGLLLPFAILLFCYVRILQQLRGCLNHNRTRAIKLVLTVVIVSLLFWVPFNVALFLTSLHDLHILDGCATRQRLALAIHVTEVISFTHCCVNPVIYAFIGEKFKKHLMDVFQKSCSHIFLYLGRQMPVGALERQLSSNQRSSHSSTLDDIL

Rattus norvegicus = species: Rattus norvegicus; experiment: Antagonist activity at rat CCR8 by FLIPR assay; format: functional
Cavia porcellus = species: Cavia porcellus; experiment: Antagonist activity at guinea pig CCR8 by FLIPR assay; format: functional

C-C chemokine receptor type 8, sequence (P51685 whole entry): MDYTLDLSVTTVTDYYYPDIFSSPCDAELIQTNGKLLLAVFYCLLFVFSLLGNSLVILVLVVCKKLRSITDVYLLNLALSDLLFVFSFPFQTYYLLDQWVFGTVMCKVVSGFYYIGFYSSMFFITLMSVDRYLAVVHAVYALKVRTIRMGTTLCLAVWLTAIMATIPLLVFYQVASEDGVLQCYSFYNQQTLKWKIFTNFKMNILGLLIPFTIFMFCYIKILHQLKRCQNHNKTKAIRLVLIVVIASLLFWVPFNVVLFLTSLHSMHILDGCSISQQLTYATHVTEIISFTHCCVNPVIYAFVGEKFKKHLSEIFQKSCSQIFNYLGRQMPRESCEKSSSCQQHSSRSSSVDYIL
Voltage-gated inwardly rectifying potassium channel KCNH2, sequence (Q12809 whole entry): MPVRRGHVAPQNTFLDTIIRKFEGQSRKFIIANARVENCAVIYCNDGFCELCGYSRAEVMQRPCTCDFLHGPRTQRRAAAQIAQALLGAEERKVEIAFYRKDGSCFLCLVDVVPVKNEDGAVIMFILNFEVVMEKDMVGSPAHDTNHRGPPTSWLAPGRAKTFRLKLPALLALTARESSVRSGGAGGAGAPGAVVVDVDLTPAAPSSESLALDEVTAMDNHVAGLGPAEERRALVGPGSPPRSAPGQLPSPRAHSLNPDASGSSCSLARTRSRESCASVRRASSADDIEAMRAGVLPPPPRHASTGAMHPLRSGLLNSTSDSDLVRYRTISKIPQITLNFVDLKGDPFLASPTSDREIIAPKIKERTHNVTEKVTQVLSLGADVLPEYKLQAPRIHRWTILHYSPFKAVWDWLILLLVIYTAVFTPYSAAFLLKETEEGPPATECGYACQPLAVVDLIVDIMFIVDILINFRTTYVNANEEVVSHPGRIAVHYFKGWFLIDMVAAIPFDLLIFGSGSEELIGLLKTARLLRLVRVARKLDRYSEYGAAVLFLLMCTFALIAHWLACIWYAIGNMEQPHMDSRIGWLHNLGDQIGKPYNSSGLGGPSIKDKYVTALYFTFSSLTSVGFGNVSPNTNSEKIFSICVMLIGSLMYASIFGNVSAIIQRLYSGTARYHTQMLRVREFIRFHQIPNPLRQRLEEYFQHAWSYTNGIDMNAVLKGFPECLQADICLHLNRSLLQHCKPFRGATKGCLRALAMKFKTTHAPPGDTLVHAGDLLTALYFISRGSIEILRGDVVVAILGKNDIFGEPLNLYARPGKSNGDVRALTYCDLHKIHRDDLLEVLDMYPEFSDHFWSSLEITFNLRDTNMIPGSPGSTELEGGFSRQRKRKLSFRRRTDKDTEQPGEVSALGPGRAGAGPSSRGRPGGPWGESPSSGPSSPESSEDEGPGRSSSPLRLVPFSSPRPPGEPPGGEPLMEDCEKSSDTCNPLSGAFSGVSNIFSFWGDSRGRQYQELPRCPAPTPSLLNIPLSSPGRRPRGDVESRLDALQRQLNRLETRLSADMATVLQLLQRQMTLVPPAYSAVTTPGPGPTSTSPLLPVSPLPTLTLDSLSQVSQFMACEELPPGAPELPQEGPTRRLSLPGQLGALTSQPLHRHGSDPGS

SMILES | IC50 [1] [nM] | also measured
COc1ccc2nccc(C3CN(C4CCN(Cc5ccc(Br)cc5)CC4)C(=O)O3)c2c1 (centres undefined) | 50.1 | 
COc1ccc2nccc(C3CN(C4CCN(Cc5cc6ccccc6n5C)CC4)C(=O)O3)c2c1 (centres undefined) | 3160 | 
COc1ccc2nccc(C3CN(C4CCN(Cc5cc6ccccc6[nH]5)C4)C(=O)O3)c2c1 (centres undefined) | > 50100 | 
COc1ccc2nccc(C3CN(C4CCN(Cc5ccc6ccccc6n5)CC4)C(=O)O3)c2c1 (centres undefined) | 3160 | 
COc1ccc2nccc(C3CN(C4CCN(Cc5ccc(C#N)cc5)CC4)C(=O)O3)c2c1 (centres undefined) | 12600 | 
COc1ccc(CN2CCC(N3CC(c4ccnc5ccc(OC)cc45)OC3=O)CC2)cc1 (centres undefined) | 1260 | 
COc1ccc2nccc(C3CN(C4CCN(Cc5ccccc5Cl)CC4)C(=O)O3)c2c1 (centres undefined) | > 50100 | 
COc1ccc2nccc(C3CN(C4CCN(CC5CCCCC5)CC4)C(=O)O3)c2c1 (centres undefined) | 7940 | 
CCCCCCN1CCC(N2CC(c3ccnc4ccc(OC)cc34)OC2=O)CC1 (centres undefined) | 501 | 
COc1ccc2nccc(C3CN(C4CCN(CCCc5ccccc5)CC4)C(=O)O3)c2c1 (centres undefined) | 251 | 
O=C1OC(c2cnc3ccccc3c2)CN1C1CCN(Cc2cc3ccccc3[nH]2)CC1 (centres undefined) | > 50100 | 
COc1ccc2nccc(C3CN(C4CCN(Cc5ccc(C)c(C)c5)CC4)C(=O)O3)c2c1 (centres undefined) | 39.8 | Selectivity ratio (Homo sapiens): 158; IC50 [2]: 6.31 µM
O=C1OC(c2ccnc3ccccc23)CN1C1CCN(Cc2cc3ccccc3[nH]2)CC1 (centres undefined) | 1000 | 
COc1ccc2nccc(C3CN(C4CCN(C)CC4)C(=O)O3)c2c1 (centres undefined) | > 50100 | 
COc1ccc2nccc(C3CN(C4CCN(Cc5cccc(Cl)c5)CC4)C(=O)O3)c2c1 (centres undefined) | 6310 | 
COc1ccc2nccc(C3CN(C4CCN(S(=O)(=O)c5ccc(Cl)c(Cl)c5)CC4)C(=O)O3)c2c1 (centres undefined) | > 50100 | 
COc1ccc2nccc(C3CN(C4CCN(Cc5ccc(Cl)c(Cl)c5)CC4)C(=O)O3)c2c1 (centres undefined) | 126 | 
O=C1OC(c2ccncc2)CN1C1CCN(Cc2cc3ccccc3[nH]2)CC1 (centres undefined) | > 50100 | 

SMILES | IC50 [1] [nM] | also measured
O=C1OC(c2ccc3ccccc3n2)CN1C1CCN(Cc2cc3ccccc3[nH]2)CC1 (centres undefined) | > 50100 | 
COc1ccc2nccc(C3CN(C4CCN(Cc5cc6ccccc6[nH]5)CC4)C(=O)O3)c2n1 (centres undefined) | 31.6 | 
COc1ccc2nccc(C3CN(C4CCCCN(Cc5cc6ccccc6[nH]5)C4)C(=O)O3)c2c1 (centres undefined) | > 50100 | 
COc1ccc2nccc(C3CN(CC4CCCN(Cc5cc6ccccc6[nH]5)C4)C(=O)O3)c2c1 (centres undefined) | > 50100 | 
COc1ccc2nccc(C3CN(CC4CCN(Cc5cc6ccccc6[nH]5)CC4)C(=O)O3)c2c1 (centres undefined) | > 50100 | 
COc1ccc2nccc(C3CN(C4CCN(Cc5ccc(-c6ccccc6)cc5)CC4)C(=O)O3)c2c1 (centres undefined) | > 50100 | 
COc1ccc2nccc(C3CN(C4CCN(Cc5ccccc5)CC4)C(=O)O3)c2c1 (centres undefined) | 12600 | 
COc1ccc2nccc(C3CN(C4CCN(Cc5ccc6ccccc6c5)CC4)C(=O)O3)c2c1 (centres undefined) | 1260 | 
COc1ccc2nccc(C3CN(C4CCN(C(=O)c5ccc(Cl)c(Cl)c5)CC4)C(=O)O3)c2c1 (centres undefined) | 6310 | 
COc1ccc2nccc(C3CN(C4CCN(Cc5ccc(Cl)cc5)CC4)C(=O)O3)c2c1 (centres undefined) | 631 | 
COc1ccc2nccc(C3CN(CCCN(C)Cc4cc5ccccc5[nH]4)C(=O)O3)c2c1 (centres undefined) | 6310 | 
COc1ccc2nccc(C3CN(C4CCN(Cc5cc6ccccc6s5)CC4)C(=O)O3)c2c1 (centres undefined) | 794 | 
COc1ccc2nccc(C3CN(C4CCN(Cc5c[nH]c6ccccc56)CC4)C(=O)O3)c2c1 (centres undefined) | > 50100 | 
COc1ccc2nccc(C3CN(C4CCN(Cc5cc6ccccc6o5)CC4)C(=O)O3)c2c1 (centres undefined) | 1260 | 
COc1ccc2nccc([C@@H]3CN(C4CCN(Cc5cc6ccccc6[nH]5)CC4)C(=O)O3)c2c1 | 20 | CL (Liver microsomes [3]): 7 mL/min/g; CL (Liver microsomes [4]): 7 mL/min/g; Vd [5]: 2.4 L/kg; bioavailability [6]: 18%; clearance [7]: 38 mL/min/kg; half-life [8]: 60 min; Selectivity ratio (Homo sapiens): 79; Activity [9]: inactive; Activity (Rattus norvegicus): inactive; Activity (Cavia porcellus): inactive; IC50 [2]: 1.58 µM
COc1ccc2nccc(C3CN(C4CCN(Cc5cc6ccccc6[nH]5)CC4)C(=O)O3)c2c1 (centres undefined) | 25.1 | 
COc1ccc2nccc(C3CN(CCCNCc4cc5ccccc5[nH]4)C(=O)O3)c2c1 (centres undefined) | 1580 | 
O=C1OC(c2cccc3ccccc23)CN1C1CCN(Cc2cc3ccccc3[nH]2)CC1 (centres undefined) | > 50100 | 
